What was measured:
[1] = test system: HIV-1IIIB; assay: Inhibition of HIV-1 infection of CEM lymphocytes (cell counts, P24 antigen assay); assay type: cell-based; settings: for HIV-1 infection level, P24 antigen: untreated control 0.52
Method: Inhibition of in vitro HIV infection of human lymphocyte cells:
Peptides: Peptides (either peptides derived from natural casein or synthetic peptides derived from casein (1-25 amino acids in length, see table 3) supplied as lyophilized powder were resuspended in RPMI complete medium and added to cell cultures at a final concentrations of 50 to 1000 μg per ml.
Cells: Several types of freshly isolated human cells (primary cells) and cell lines are known to be susceptible to in vitro HIV-1 infection, although essentially any cell displaying even low surface levels of the CD4 molecule can be considered a potential target for HIV-1 infection. Two commonly used human cell lines which are highly sensitive for HIV-1 infection were chosen, CEM and Sup-T1.
CEM is a human T4-lymphoblastoid cell line initially derived by G. E. Foley et al. [(1965), Cancer 18:522] from peripheral blood buffy coat of a person with acute lymphoblastic leukemia. These cells were continuously maintained in suspension in medium, and have been used widely for analysis of infectivity, antiviral agents and neutralizing antibodies.
Virus: The HIV virus strain employed was HIV-1IIIB, originally designated HTLV-IIIB. Concentrated culture fluids of peripheral blood from several patients with AIDS or related diseases were used to establish a permanent productive infection in H-9 cells. This subtype B virus has high capacity to replicate in human T-cell lines. Viral titer was 5.38 ng per ml in stock solution.
HIV-1 P24 antigen capture assay: An HIV-1 P24 Antigen capture assay kit employed was designed to quantitate the HIV-1 P24 core antigen, which is proportionally related to the degree of viral production in cells. This kit was purchased from the AIDS Vaccine program of the SAIC-NCI-Frederick Cancer Research Institute, P.O. Box B, Frederick, Md. 21702, USA and included 96 well plates coated with monoclonal antibody to HIV-1 P24, primary antibody-rabbit anti-HIV P24 serum, secondary antibody-Goat anti-rabbit-IgG (H+ L) peroxidase conjugated antibody, TMB peroxidase substrate system and lysed HIV-1 P24 standard. The HIV-1 P24 antigen capture assay was analyzed by Organon-Technica ELISA reader at 450 nm with a reference at 650 nm.
HIV-1 P24 antigen capture ELISA: HIV infection was measured with an indirect enzyme immunoassay which detects HIV-1 P24 core antigens in tissue culture media. Tissue culture supernatant was reacted with primary rabbit anti-HIV-1 P24 antigen and visualized by peroxidase conjugated goat anti rabbit IgG. The reaction was terminated by adding 4N H2SO4, wherein the intensity of the color developed is proportional to the amount of HIV-1 antigen present in the tissue culture supernatant.
HIV infection of human cultured CD4+ cells: The cells (CEM, Sup-T1) were preincubated with several increasing concentrations of peptides derived from natural casein (50-1000 μg per ml) or synthetic peptides derived from casein (10-500 μg per ml) for 3, 24 (for synthetic and natural peptides) and 48 (only for natural peptides) hours and HIV-1IIIB (45 μg per ml final concentration) was added to each well thereafter. HIV-1IIIB was preincubated with the peptides for 3 hours and then added to cells (5000 cells/well) in tissue culture plates. Controls were IF (Infected, cells cultured with HIV-1 and without peptides), UIF (Uninfected, cells cultured without HIV-1 and without peptides) and UIF+Ch (Uninfected+peptides derived from natural casein, cells cultured in the presence of peptides derived from natural casein {50-1000 μg per ml}) to test the effect of peptides derived from natural casein and synthetic peptides derived from casein on cell viability and growth. Cells were counted for viability and proliferation rate on day 7, 10 and day 14 post infection (the day of P24 antigen culture supernatant harvest). Cells and tissue culture supernatants (media) were harvested and lysed immediately in 1/10 volume of 10% Triton X-100. […]

[2] = test system: Non-Obese Diabetic (NOD) mice; assay: Prevention of glucosuria / Juvenile (Type I, IDDM) Diabetes in NOD mice; assay type: in vivo, mouse; settings: for onset of glucosuria: assayed at week 16, untreated controls 100% glucosuria, data not shown; for Healthy/Total* (healthy and well = sugar not detected in urine): female NOD mice
Method: Juvenile (Type I, IDDM) Diabetes in Non-Obese Diabetic (NOD) Mice:
Peptides Derived from Natural Casein:
NOD mice are a commonly used model for research of autoimmune disease and human Juvenile Diabetes. Six week old female NOD mice received either one or two injections per week of 100 μg of peptides derived from natural casein, for a total of 5 or 11 treatments. Control mice received no treatment. The severity of disease was determined according to glucosuria, which was measured using Combi test sticks [Gross, D. J. et al. (1994), Diabetology, 37:1195]. Results were expressed as the percent of glucosuria-free mice in each sample over a 365-day period.
Synthetic Peptides Derived from Casein:
In another experiment, 6 week old female NOD mice received one injection per week of 100 μg of Synthetic peptides derived from casein for a total of 5 treatments. Control mice received no treatment. Results were expressed as the number of healthy mice in the various treated groups.

[3] = test system: human Peripheral Blood Stem Cells (PBSC); assay: Natural Killer (NK) cell activity in cultured human PBSC (lysis of K562 target cells); assay type: cell-based
Method: Stimulation of Proliferation of Natural Killer (NK) Cells:
From human Peripheral Blood Stem Cells (PBSC): PBSC of G-CSF treated subjects were separated on a FICOLL gradient, washed twice with RPMI-1640 medium and seeded into 1.5 ml wells with or without peptides derived from natural casein or synthetic peptides derived from casein, as indicated, (0-500 μg per ml). Following two days incubation the cells were assayed for Natural Killer activity by measuring radioactivity released from ^35S-labeled K562 target cells (NEG-7Q9A, 185.00 MBq, 2.00 mCi EASYTAGth Methionine, L-[^35S] 43.48 TBq per mmol, 1175.0 Ci per mmol, 0.488 ml, Boston USA). Two concentrations of effector cells ([…] cells per well) were incubated with 5×10^3 target cells per well (effector:target cell ratios of 50:1 and 100:1, respectively) in U-bottomed 96 well tissue culture plates. The cells were incubated for 5 hours at 37° C. in 5% CO2, 95% air and precipitated by 5 minutes centrifugation at 1000 rpm. ^35S release was measured in 50 μl samples of the supernatant liquid.

[4] = test system: murine primary bone marrow cells; assay: Multipotential colonies (CFU-GEMM) from murine bone marrow cells, colony and differential counts; assay type: cell-based, mouse; settings: for megakaryocyte formation and development: 8 days treatment; for macrophages, % of total cell count: approximately 17% in unincubated controls
Method: Stimulation of Hematopoiesis from Bone Marrow (BM) Cells in Culture:
Proliferation of megakaryocytes in multipotential colonies (CFU-GEMM) from murine Bone Marrow cells: Primary bone marrow cells (1×10^5 per ml) from 8-12 week-old C3H/HeJ mice were grown in serum-free methyl cellulose-IMDM medium for 8-9 days at 5% CO2, 95% air, at 37° C. The medium, appropriate for the growth of multipotential colonies (CFU-GEMM), contained 1% BSA (Sigma), 10^−4 M thioglycerol (Sigma), 2.8×10^−4 M human transferrin (TF, Biological industries, Israel), 10% WEHI-CM as a source of IL-3 and 2 units per ml erythropoietin (rhEPO, R & D Systems, Minneapolis). Colonies were scored after 8-9 days using an Olympus dark field microscope. They were picked with a micropipette, cytocentrifuged and stained with May-Grunwald-Giemsa for differential counts. At least 700 cells were counted for each preparation. […]
Proliferation of Macrophage cells in CFU-GEMM: Multipotent (CFU-GEMM colonies grown from primary bone marrow cells as described for the assay of megakaryocyte proliferation above were collected, stained and counted for macrophage cells. At least 700 cells were counted for each preparation.
Proliferation of Red Blood Cells in CFU-GEMM: Multipotent (CFU-GEMM) colonies grown from primary bone marrow cells as described for the assay of megakaryocyte proliferation above were collected, stained and counted for red blood cells. At least 700 cells were counted for each preparation. […]

[5] = test system: lethally irradiated, bone marrow-reconstituted mice; assay: Leukocyte and platelet reconstitution in bone marrow transplant recipient mice; assay type: in vivo, mouse; settings: for platelet counts: 800 cGy, 100 μg per mouse i.p. on days 4-7; for peripheral white blood cell counts: BALB/c, 600 cGy, 1 mg per mouse intraperitoneal
Method: Leukocyte and platelet reconstitution in bone marrow transplant recipient mice: BALB/c mice were lethally irradiated at a source to skin distance of 70 cm, dosage of 50 cGy per minute, for a total of 600 cGy. The irradiated mice were […] casein, synthetic peptides derived from casein (13-26 amino acids, see Table 3 above), or human serum albumin (controls), following a double-blinded protocol. Leukocyte reconstitution was determined according to cell count in peripheral blood collected at indicated intervals from 6 to 12 days post treatment. Platelet reconstitution was determined by cell count in blood collected from the retro orbital plexus, into heparinized capillaries, at indicated intervals from day 6 to day 15 post treatment.
In an additional series of experiments, CBA mice were lethally irradiated (900 cGy), reconstituted and treated with peptides derived from natural casein or human serum albumin as described above. Platelet reconstitution was assayed as mentioned above.
In a third series of experiments, the mice were irradiated (800 cGy), reconstituted and injected intraperitoneally with 100 μg synthetic peptides derived from casein (peptides 3a and 4P, representing the first 6 and 12 amino acids of the N terminus of αS1 casein, respectively—see Table 3 above) daily, on days 4, 5, 6 and 7 post-transplantation. Platelet reconstitution was assayed at 10 and 12 days post-transplantation.

[6] = test system: Non-Obese Diabetic (NOD) mice; assay: Intraperitoneal Glucose Tolerance Test (IPGTT) in NOD mice; assay type: in vivo, mouse; set-up: IPGT TEST 0 min. (pre-load), plasma glucose: unit not given here; settings: individual healthy NOD mice, 25 weeks after peptides
Method: Intraperitoneal Glucose Tolerance Test (IPGTT):
The glucose tolerance test is the definitive method for investigating glucose metabolism and diabetic tendencies in mammals. Twenty five (25) weeks after receiving Synthetic peptides derived from casein, response to a glucose load was assessed with an intraperitoneal glucose tolerance test. Glucose injection consisted of 1 g/kg body weight. Glycemic values were determined from blood drawn prior to test (0 minutes) and 60 minutes after loading.

[7] = 12 days post transplantation, controls 676 (4P) and 461 (3a)
[8] = 100 μg once weekly for 5 weeks, evaluated after 25 weeks

RPK [1P]
lymphocyte cell numbers ([1]; 100 μg per ml, 3 hours pretreatment, infected control 1.06×10^6): 1.29 ×10^6
HIV-1 infection level, P24 antigen ([1]; 100 μg/ml, 7 days post infection): 0.17 ng P24 Antigen/ml
lymphocyte cell numbers ([1]; 500 μg per ml, 3 hours pretreatment, infected control 1.06×10^6): 2.01 ×10^6
HIV-1 infection level, P24 antigen ([1]; 500 μg/ml, 7 days post infection): 0.14 ng P24 Antigen/ml
resistance of CEM cells to HIV-1 infection (in words) ([1]; 3 hours pretreatment): significant degree of resistance to infection
onset of glucosuria [2]: effectively prevented
effect on NK activity in PBSC cultures from healthy human donors [3]: No significant effect
patients (of 5 tested) responding ([3]; 25 μg/ml peptide concentration): 3
patients (of 5 tested) responding ([3]; 100 μg/ml peptide concentration): 1
patients (of 5 tested) responding ([3]; 250 μg/ml peptide concentration): 1

RPKH [2P]
red blood cells, % of total cell count ([4]; 53% in unincubated controls): 71%
onset of glucosuria [2]: effectively prevented

RPKHPI [4P]
increase of platelet counts over untreated controls ([5]; 12 days post transplantation): 29%
platelet counts [5, 7]: 872000 mL⁻¹
megakaryocyte formation and development [4]: significant increase
cell counts ([1]; 25 μg per ml, 3 hours pretreatment, infected control 1.06×10^6): 1.26 ×10^6
cell numbers ([1]; 250 μg per ml, 3 hours preincubation, infected control 1.06×10^6): 1.59 ×10^6
resistance of CEM cells to HIV-1 infection (in words) ([1]; 3 hours pretreatment): significant effect on the susceptibility
viral particles by HIV-P24 antigen assay vs untreated, infected control ([1]; 7 days post infection): dose dependent reduction

RPKHPIK [5P]
macrophages, % of total cell count [4]: ~30%

RPKHPIKH [Y]
Healthy/Total* (healthy and well = sugar not detected in urine) [2, 8]: 1/5

RPKHPIKHQG [1a]
IPGT TEST 0 min. (pre-load), plasma glucose [6]: 88
Healthy/Total* (healthy and well = sugar not detected in urine) [2, 8]: 1/5

RPKHPIKHQGLP [3a]
increase of platelet counts over untreated controls ([5]; 10 days post transplantation): up to 35.5%
platelet counts ([5]; 10 days post transplantation, control 169): 229000 mL⁻¹
increase of platelet counts over untreated controls ([5]; 12 days post transplantation): up to 13.5%
platelet counts [5, 7]: 622000 mL⁻¹
megakaryocyte formation and development [4]: significant increase
prevention of glucosuria (in words) [2, 8]: highly effective
Healthy/Total* (healthy and well = sugar not detected in urine) [2, 8]: 3/5

RPKHPIKHQGLPQ [A]
peripheral white blood cell counts ([5]; day 10, albumin control 16.7): 17.2 ×10^6 cells per dl
peripheral white blood cell counts ([5]; day 12, albumin control 46.4): 65.4 ×10^6 cells per dl
Healthy/Total* (healthy and well = sugar not detected in urine) [2, 8]: 2/5

RPKHPIKHQGLPQE [B]
IPGT TEST 0 min. (pre-load), plasma glucose [6]: 130
IPGT TEST 60 min. post load, plasma glucose ([6]; glucose 1 g/kg i.p.): 97 mmol/L
Healthy/Total* (healthy and well = sugar not detected in urine) [2, 8]: 2/5

RPKHPIKHQGLPQEVL [D]
macrophages, % of total cell count [4]: ~30%
Healthy/Total* (healthy and well = sugar not detected in urine) [2, 8]: 2/5

RPKHPIKHQGLPQEVLN
peripheral white blood cell counts ([5]; day 10, albumin control 16.7): 27.4 ×10^6 cells per dl
peripheral white blood cell counts ([5]; day 12, albumin control 46.4): 52.0 ×10^6 cells per dl
megakaryocyte formation and development [4]: significant increase

RPKHPIKHQGLPQEVLNE [F]
megakaryocyte formation and development [4]: significant increase

RPKHPIKHQGLPQEVLNEN
megakaryocyte formation and development [4]: significant increase

RPKHPIKHQGLPQEVLNENL
megakaryocyte formation and development [4]: significant increase

RPKHPIKHQGLPQEVLNENLL
megakaryocyte formation and development [4]: significant increase
Healthy/Total* (healthy and well = sugar not detected in urine) [2, 8]: 2/5

RPKHPIKHQGLPQEVLNENLLR [J]
Healthy/Total* (healthy and well = sugar not detected in urine) [2, 8]: 3/5

RPKHPIKHQGLPQEVLNENLLRF
macrophages, % of total cell count [4]: ~30%
Healthy/Total* (healthy and well = sugar not detected in urine) [2, 8]: 2/5

RPKHPIKHQGLPQEVLNENLLRFF
megakaryocyte formation and development [4]: significant increase

Source: patent publication US7741274B2, “Casein derived peptides and uses thereof in therapy” (priority 2000, dated 2010)
